The values below are quoted from earlier work in EP0268925B1, “Safened pesticidal resin compositions for controlling soil borne pests and process for the preparation thereof” (priority 1986, dated 1988).

The conditions of series [1]: inhalation hazard.
The next series has as its system rats. To be noted: technical material.

For the compound `CCOP(=S)(OCC)SCSCC` [phorate, O,O-diethyl-S-(ethylthiomethyl)phosphorodithioate], the “inhalation LD50” value in series [1] is listed as 35 mg/kg body weight. In addition, in the series on rats, the “acute oral LD50 value in rats” value is reported as 1.6-3.7 mg technical/kg.

As for `CCOP(=S)(OCC)SCSC(C)(C)C` [terbufos, O,O-diethyl S-[[(1,1-dimethylethyl)thio]methyl]phosphorodithioate], in series [1], the “inhalation LD50” value is 35 mg/kg body weight. Further, the “acute oral LD50 value in rats” value with rats is given as 1.6 mg technical/kg.
